# Test results reported in patent publication US11021478B2, “Indolizine derivatives and their application in medicine” (Kind Pharmaceutical, priority 2017, dated 2021).
# System: hemoglobin in mice
# Test: Effect of compounds of Examples on hemoglobin in mice
# Assay type: in vivo
# Conditions: male C57B1/6 mice, oral 30 mg/kg, 3 times each week for 2 weeks; 6 hours after last administration minus before first administration
# Protocol: Male C57B1/6 mice of 8-10 weeks (Shanghai Slack Laboratory Animals Co., Ltd.) were administrated orally the test compounds in 30 mg/kg for 2 weeks, 3 times each week and Roxadustat (CAS: 808118-40-3) was administrated in an amount of 60 mg/kg as a positive control. Before the first administration and 6 hours after the last administration, about 30 μl of blood was taken from the mandibular vein, and the hemoglobin content was measured by Hemocue hemoglobin analyzer. The hemoglobin elevation was calculated as the value obtained by subtracting the first hemoglobin content from the hemoglobin content after the last administration.
# In addition, hemoglobin elevation was also tested in the same manner for Roxadustat as a positive control. Roxadustat was purchased from Selleckchem, which was known to be a potent inhibitor of HIF prolyl hydroxylase in the art and be able to increase hemoglobin production.
row,SMILES,Hemoglobin elevation [g/dL]
1,"O=C(O)CNC(=O)C1=C(O)C2(CCCCC2)n2cccc2C1=O [Example 13, (6′-Hydroxy-8′-oxo-8′H-spiro[cyclohexane-1,5′-indolizine]-7′-carbonyl)glycine]",4.3
2,"O=C(O)CNC(=O)C1=C(O)C2(CCC2)n2cccc2C1=O [Example 6, (6′-Hydroxy-8′-oxo-8′H-spiro[cyclobutane-1,5′-indolizine]-7′-carbonyl)glycine]",0.9
3,"C[C@H]1CC[C@@]2(CC1)C(O)=C(C(=O)NCC(=O)O)C(=O)c1cccn12 [Example 69, ((1,4-cis)-6′-hydroxy-4-methyl-8′-oxo-8′H-spiro[cyclohexane-1,5′-indolizine]-7′-carbonyl)glycine]",0.7
4,"C[C@H](NC(=O)C1=C(O)C2(CCC2)n2cccc2C1=O)C(=O)O [Example 7, (6′-Hydroxy-8′-oxo-8′H-spiro[cyclobutane-1,5′-indolizine]-7′-carbonyl)-L-alanine]",0.7
5,"COC(=O)CNC(=O)C1=C(O)C2(CCCC2)n2cccc2C1=O [Example 9, (6′-Hydroxy-8′-oxo-8′H-spiro[cyclopentane-1,5′-indolizine]-7′-carbonyl)glycine methyl ester]",2.0
6,"O=C(O)CNC(=O)C1=C(O)C2(CCCC2)n2cccc2C1=O [Example 8, (6′-Hydroxy-8′-oxo-8′H-spiro[cyclopentane-1,5′-indolizine]-7′-carbonyl)glycine]",3.1
7,"C[C@H](NC(=O)C1=C(O)C2(CC2)n2cccc2C1=O)C(=O)O [Example 2, (6′-Hydroxy-8′-oxo-8′H-spiro[cyclopropane-1,5′-indolizine]-7′-carbonyl)-L-alanine]",0.6
8,"C[C@H]1CC[C@]2(CC1)C(O)=C(C(=O)NCC(=O)O)C(=O)c1cccn12 [Example 68, ((1,4-trans)-6′-hydroxy-4-methyl-8′-oxo-8′H-spiro[cyclohexane-1,5′-indolizine]-7′-carbonyl)glycine]",5.2
9,"CCOC(=O)CNC(=O)C1=C(O)C2(CCCC2)n2cccc2C1=O [Example 10, (6′-Hydroxy-8′-oxo-8′H-spiro[cyclopentane-1,5′-indolizine]-7′-carbonyl)glycine ethyl ester]",1.9
10,"C[C@H](NC(=O)C1=C(O)C2(CCCC2)n2cccc2C1=O)C(=O)O [Example 11, (6′-Hydroxy-8′-oxo-8′H-spiro[cyclopentane-1,5′-indolizine]-7′-carbonyl)-L-alanine]",2.0
11,"O=C(O)CNC(=O)C1=C(O)C2(CCCC2)n2c(ccc2-c2ccccc2)C1=O [Example 24, (6′-Hydroxy-8′-oxo-3′-phenyl-8′H-spiro[cyclopentane-1,5′-indolizine]-7′-carbonyl)glycine]",4.0
12,"O=C(O)CNC(=O)C1=C(O)C2(CCCCC2)n2c(ccc2-c2ccccc2)C1=O [Example 35, (6′-Hydroxy-8′-oxo-3′-phenyl-8′H-spiro[cyclohexane-1,5′-indolizine]-7′-carbonyl)glycine]",2.5
13,"O=C(O)CNC(=O)C1=C(O)C2(CCCC2)n2ccc(C3CC3)c2C1=O [Example 62, (1′-cyclopropyl-6′-hydroxy-8′-oxo-8′H-spiro[cyclopentane-1,5′-indolizine]-7′-carbonyl)glycine]",0.1
14,"CCOC(=O)[C@H](C)NC(=O)C1=C(O)C2(CCCC2)n2cccc2C1=O [Example 21, (6′-Hydroxy-8′-oxo-8′H-spiro[cyclopentane-1,5′-indolizine]-7′-carbonyl)-L-alanine ethyl ester]",1.8
15,"O=C(O)CNC(=O)C1=C(O)C2(CC2)n2cccc2C1=O [Example 1, (6′-Hydroxy-8′-oxo-8′H-spiro[cyclopropane-1,5′-indolizine]-7′-carbonyl) glycine]",1.0
16,"O=C(O)CNC(=O)C1=C(O)C2(CCCCCC2)n2cccc2C1=O [Example 67, (6′-Hydroxy-8′-oxo-8′H-spiro[cycloheptane-1,5′-indolizine]-7′-carbonyl)glycine]",0.8
17,"O=C(O)CNC(=O)C1=C(O)C2(CCC2)n2c(ccc2-c2ccccc2)C1=O [Example 39, (6′-Hydroxy-8′-oxo-3′-phenyl-8′H-spiro[cyclobutane-1,5′-indolizine]-7′-carbonyl)glycine]",4.8
18,"C[C@@H](NC(=O)C1=C(O)C2(CCCC2)n2cccc2C1=O)C(=O)O [Example 12, (6′-Hydroxy-8′-oxo-8′H-spiro[cyclopentane-1,5′-indolizine]-7′-carbonyl)-D-alanine]",0.8
19,"CC1(C)C(O)=C(C(=O)NCC(=O)O)C(=O)c2cccn21 [Example 4, (6-Hydroxy-5,5-dimethyl-8-oxo-5,8-dihydroindolizin-7-carbonyl) glycine]",0.8
20,"C[C@H](NC(=O)C1=C(O)C2(CCCCC2)n2cccc2C1=O)C(=O)O [Example 14, (6′-Hydroxy-8′-oxo-8′H-spiro[cyclohexane-1,5′-indolizine]-7′-carbonyl)-L-alanine]",1.0
21,"C[C@H](NC(=O)C1=C(O)C(C)(C)n2cccc2C1=O)C(=O)O [Example 5, (6-Hydroxy-5,5-dimethyl-8-oxo-5,8-dihydroindolizin-7-carbonyl)-L-alanine]",1.0

# Same assay, conditions: positive control, male C57B1/6 mice, 60 mg/kg, 3 times each week for 2 weeks; 6 hours after last administration minus before first administration
row,SMILES,Hemoglobin elevation [g/dL]
1,"Cc1nc(C(=O)NCC(=O)O)c(O)c2ccc(Oc3ccccc3)cc12 [Roxadustat, reference compound]",1.7

# Target: HIF prolyl hydroxylase-2 (HIF-PHD2) (Homo sapiens (Human), UniProt Q9GZT9)
# Sequence (Q9GZT9 whole entry, species assumed): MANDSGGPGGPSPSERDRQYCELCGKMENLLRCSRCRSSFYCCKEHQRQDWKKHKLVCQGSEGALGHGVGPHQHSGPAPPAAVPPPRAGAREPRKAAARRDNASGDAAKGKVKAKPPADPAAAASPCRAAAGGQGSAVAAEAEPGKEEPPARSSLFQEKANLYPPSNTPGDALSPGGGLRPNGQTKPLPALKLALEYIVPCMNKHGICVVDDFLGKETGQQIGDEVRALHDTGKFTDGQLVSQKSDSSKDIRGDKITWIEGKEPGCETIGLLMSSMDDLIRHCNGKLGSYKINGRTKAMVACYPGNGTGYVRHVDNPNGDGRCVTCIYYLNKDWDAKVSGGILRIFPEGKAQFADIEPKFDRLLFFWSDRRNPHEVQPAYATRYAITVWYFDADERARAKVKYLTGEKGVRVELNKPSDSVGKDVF
# Test: Effect of compounds on activities of HIF prolyl hydroxylase-2 (hydroxylation of immobilized HIF-1α556-574 peptide, Eu-VBC binding, OD 450 nm)
# Assay type: biochemical
# Conditions: HIF-PHD2, biotinyl-HIF-1α556-574 substrate; representative, relative values
row,IC50 [µM],SMILES
1,> 10,"COC(=O)CNC(=O)C1=C(O)C2(CCCC2)n2cccc2C1=O [Example 9, (6′-Hydroxy-8′-oxo-8′H-spiro[cyclopentane-1,5′-indolizine]-7′-carbonyl)glycine methyl ester]"
2,> 10,"CCOC(=O)CNC(=O)C1=C(O)C2(CCCC2)n2cccc2C1=O [Example 10, (6′-Hydroxy-8′-oxo-8′H-spiro[cyclopentane-1,5′-indolizine]-7′-carbonyl)glycine ethyl ester]"
3,> 10,"CCOC(=O)CNC(=O)C1=C(O)C2(CCCCC2)n2cccc2C1=O [Example 46, (6′-Hydroxy-8′-oxo-8′H-spiro[cyclohexane-1,5′-indolizine]-7′-carbonyl)glycine ethyl ester]"
4,> 10,"CC(C)(C)C(=O)OCOC(=O)CNC(=O)C1=C(O)C2(CCCCC2)n2cccc2C1=O [Example 22, (((6′-hydroxy-8′-oxo-8′H-spiro[cyclohexane-1,5′-indolizine]-7′-carbonyl)glycyloxy)methyl) pivalate]"
5,> 10,"CCOC(=O)[C@H](C)NC(=O)C1=C(O)C2(CCCC2)n2cccc2C1=O [Example 21, (6′-Hydroxy-8′-oxo-8′H-spiro[cyclopentane-1,5′-indolizine]-7′-carbonyl)-L-alanine ethyl ester]"
